From US20160279297A1, “METHODS FOR INHIBITING STENOSIS, OBSTRUCTION, OR CALCIFICATION OF A STENTED HEART VALVE OR BIOPROSTHESIS” (CONCIEVALVE LLC, priority 2013, published 2016)

What was measured:
[1] = test system: Mesenchymal valve cells; assay: tritiated thymidine incorporation, PDGF-stimulated cell proliferation; format: cell-based
Procedure: Mesenchymal valve cells were isolated from the cardiac aortic valves by collagenase digestion. Cells were cultured in medium 199 with 10% (v/v) heat-inactivated fetal bovine serum at 37 C in a humidified atmosphere of 5% CO2 in air. Cells were utilized between the 3rd and 7th passage. Mesenchymal cells were grown to confluence in 24-well plates and then growth-arrested by incubation in serum-free medium for 24 hours. The test materials were added to the wells and incubated for 18 hours. Test materials include PDGF at concentrations (10-40 ug/ml) PDGF Sigma in combination with a MEK inhibitor (PD0325901 Mek Inhibitor) (2.5-10 ug/ml). The wells were pulsed for 4 hours with 1 μCi/well of tritiated thymidine. Newly synthesized DNA will be then identified by incorporation of radioactivity into acid-precipitated cellular material. All samples were assayed in quadruplicate wells. The positive control wells were given PDGF (10 ug/ml) Sigma (St. Louis, Mo.), the negative control wells received serum-free medium.

[2] = test system: p42/44; assay: p42/44 protein expression by western blot; format: cell-based; settings: FIG. 16 Panel C
[3] = test system: bovine pericardial bioprosthetic valve tissue; assay: rabbit model with subcutaneously implanted bioprosthetic valve tissue: RNA expression and pannus formation; format: in vivo
[4] = rabbit model of experimental hypercholesterolemia, serum levels; format: in vivo; settings: cholesterol-fed rabbits, atorvastatin 3.0 mg/kg daily orally
Excerpt: An experimental animal was developed to test for the dosing of the atorvastatin to reduce the inflammation and also the pannus formation on the valve leaflet. The experimental procedure is as follows, Male New Zealand white rabbits weighing 2.5-3.0 kg were assigned to a control (N=10) or 0.5% cholesterol-fed group (N=10) or to a cholesterol-fed and atorvastatin group (N=10). All animals were fed ad libitum for 12 weeks. Control rabbits were fed a standard diet. Cholesterol-fed animals received a diet supplemented with 0.5% (w/w) cholesterol (Purina Mills, Woodmont, Ind.), and the cholesterol-fed and atorvastatin group were given atorvastatin 3.0 mg/kg daily orally for the statin treatment arm^1. Prior to the initiation of the diet the rabbits underwent surgical implantation of bovine pericardial bioprosthetic valve tissue (Perimount, Edwards, Irvine Calif.) using intramuscular ketamine/xylazine (40/5 mg/kg). Following this 12-week period, the rabbits were anesthetized using intramuscular ketamine/xylazine (40/5 mg/kg) and then underwent euthanasia with intracardiac administration of 1 ml of Beuthanasia. Immediately after removal from the subcutaneous implantation site the bioprosthetic valves were fixed in 4% buffered formalin for 24 hours and then embedded in paraffin. Paraffin embedded sections (6 μm) were cut and stained with Masson Trichrome stain for histopathologic exam. […]

[5] = test system: neointima hyperplasia; settings: stent coating, at four weeks; cited from earlier work
[6] = from biodegradable polylactic acid, follow-up of four years; cited from earlier work
[7] = atorvastatin at 80 mg per day equivalent to human dosing, FIG. 15

With PDGF the mesenchymal cell proliferation ([1]; PDGF dose response 10-40 ug/ml, FIG. 16 Panel A) was “proliferating” and the p42/44 protein expression [2] was “increase”.
In the case of O=C(NOC[C@H](O)CO)c1ccc(F)c(F)c1Nc1ccc(I)cc1F [PD0325901], the “dosing range with inhibition effect on cell proliferation” value ([1]; PDGF 10 ug/ml induced proliferation, tested range 2.5-10 ug/ml, 18 hours, FIG. 16 Panel B) is reported as 5 to 10 µg/mL and the p42/44 protein expression [2] is reported as “inhibition”.
For CC(C)c1c(C(=O)Nc2ccccc2)c(-c2ccccc2)c(-c2ccc(F)cc2)n1CC[C@@H](O)C[C@@H](O)CC(=O)O [Atorvastatin], the “stem cell RNA expression on the valves” value [3, 7] was “reduction”, the “stem cell mediated pannus formation” value [3, 7] was “reduction” and the “therapeutic benefit at the lower dosing ranges” value ([3]; previous experiments, 20 mg a day and 40 mg a day) was “zero therapeutic benefit”. The “ckit stem cell adhering to the valve” value ([3]; rabbit, in vivo) was “reduces”, the hsCRP serum levels ([4]; 12 weeks) was 7.8±8.7 and the serum cholesterol levels ([4]; 12 weeks (equivalent to 80 mg a day for humans)) was 824.0 ± 152.1 mg/dL.
For CC(=O)O[C@H]1C(=O)[C@@]2(C)[C@H]([C@H](OC(=O)c3ccccc3)[C@]3(O)C[C@H](OC(=O)[C@H](O)[C@@H](NC(=O)c4ccccc4)c4ccccc4)C(C)=C1C3(C)C)[C@]1(OC(C)=O)CO[C@@H]1C[C@@H]2O [Paclitaxel], the neointima hyperplasia [5] is listed as “inhibits”.
For CCOCCO[C@@H]1CC[C@@H](C[C@@H](C)[C@@H]2CC(=O)[C@H](C)/C=C(\C)[C@@H](O)[C@@H](OC)C(=O)[C@H](C)C[C@H](C)/C=C/C=C/C=C(\C)[C@@H](OC)C[C@@H]3CC[C@@H](C)[C@@](O)(O3)C(=O)C(=O)N3CCCC[C@H]3C(=O)O2)C[C@H]1OC [biolimus], the “major adverse clinical events versus sirolimus eluting stents” value [6] is listed as “not inferior and potentially better”.
